Measured values reported in PubChem BioAssay AID248 (DTP/NCI, 2004).
“And” between values parts separate entries of the source, which are not always exact repeats. Equal entries are not always repeated. Inconclusive results and toxic doses are left out. Rule as the data show it: active = T/C of 150% or more; inactive = T/C below 125%.

Tested on: L1210 leukemia ip in BDF1 mice, survival T/C
Assay: NCI In Vivo Anticancer Drug Screen. Data for tumor model L1210 Leukemia (intraperitoneal) in B6D2F1 (BDF1) mice
Conditions: endpoint: mean survival time, higher = longer survival
Summary of the method: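 Transplantable tumor model; survival measured in treated vs vehicle control mice. Value = treated/control.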

[1] = dose: 100.0 mg/kg/injection, schedule: Q04DX003 (ip), vehicle: saline
[2] = dose: 200.0 mg/kg/injection, schedule: Q04DX003 (ip), vehicle: saline
[3] = dose: 400.0 mg/kg/injection, schedule: Q04DX003 (ip), vehicle: saline
[4] = dose: 100.0 mg/kg/injection, schedule: Q01DX001 (ip), vehicle: saline with Tween-80
[5] = dose: 100.0 mg/kg/injection, schedule: Q04DX002 (ip), vehicle: saline with Tween-80
[6] = dose: 200.0 mg/kg/injection, schedule: Q01DX001 (ip), vehicle: saline with Tween-80
[7] = dose: 200.0 mg/kg/injection, schedule: Q04DX002 (ip), vehicle: saline with Tween-80
[8] = dose: 400.0 mg/kg/injection, schedule: Q04DX002 (ip), vehicle: saline with Tween-80
[9] = dose: 100.0 mg/kg/injection, schedule: Q01DX001 (ip), vehicle: saline
[10] = dose: 200.0 mg/kg/injection, schedule: Q01DX001 (ip), vehicle: saline
[11] = dose: 400.0 mg/kg/injection, schedule: Q01DX001 (ip), vehicle: saline

Measured: T/C

O=S(c1ccccc1)N(OCc1ccccc1)S(=O)c1ccccc1 (configuration not stated)
inactive: dose: 25.0 mg/kg/injection, schedule: Q04DX002 (ip), vehicle: Klucel (hydroxypropylcellulose) (HPC) 98 % of control | dose: 50.0 mg/kg/injection, schedule: Q04DX002 (ip), vehicle: Klucel (hydroxypropylcellulose) (HPC) 104 % of control | dose: 100.0 mg/kg/injection, schedule: Q04DX002 (ip), vehicle: Klucel (hydroxypropylcellulose) (HPC) 95 % of control

O=S(=O)(CC(I)c1ccccc1)c1ccccc1 (configuration not stated)
inactive: [1] 105 % of control | [2] 94 % of control | [3] 92 % of control

CCCC(C(=O)OCC)C1=NC(C)(C)CC(C)O1 (configuration not stated)
inactive: dose: 100.0 mg/kg/injection, schedule: Q01DX009 (ip), vehicle: alcohol 102 % of control | dose: 200.0 mg/kg/injection, schedule: Q01DX009 (ip), vehicle: alcohol 105 % of control | dose: 400.0 mg/kg/injection, schedule: Q01DX009 (ip), vehicle: alcohol 105 % of control

COc1cc(C(=O)NNC(=O)c2ccc(Cl)c(Cl)c2)cc(OC)c1OC
inactive: [4] 93 % of control | dose: 100.0 mg/kg/injection, schedule: Q01DX009 (ip), vehicle: saline with Tween-80 100 % of control and 89 % of control | [5] 93 % of control and 104 % of control | [6] 97 % of control | dose: 200.0 mg/kg/injection, schedule: Q01DX009 (ip), vehicle: saline with Tween-80 101 % of control and 86 % of control | [7] 101 % of control and 110 % of control | dose: 400.0 mg/kg/injection, schedule: Q01DX001 (ip), vehicle: saline with Tween-80 90 % of control | dose: 400.0 mg/kg/injection, schedule: Q01DX009 (ip), vehicle: saline with Tween-80 92 % of control and 97 % of control | [8] 102 % of control and 87 % of control

C=C(CCCCC)C(=O)/C=C/c1ccc(Cl)c(Cl)c1
inactive: dose: 12.5 mg/kg/injection, schedule: Q04DX002 (ip), vehicle: DMSO 101 % of control | dose: 25.0 mg/kg/injection, schedule: Q04DX002 (ip), vehicle: DMSO 114 % of control | dose: 50.0 mg/kg/injection, schedule: Q04DX002 (ip), vehicle: DMSO 104 % of control

O=C(O)CCCC(CC(=O)O)c1ccccc1 (configuration not stated)
inactive: dose: 50.0 mg/kg/injection, schedule: Q04DX002 (ip), vehicle: saline 108 % of control | dose: 100.0 mg/kg/injection, schedule: Q04DX002 (ip), vehicle: saline 104 % of control | dose: 200.0 mg/kg/injection, schedule: Q04DX002 (ip), vehicle: saline 101 % of control

NC(=O)CCCCc1ccccc1
inactive: dose: 50.0 mg/kg/injection, schedule: Q01DX001 (ip), vehicle: saline with Tween-80 93 % of control | [4] 98 % of control | [6] 90 % of control

O=C1C(Cl)=C(Cl)C(=O)c2cc(Cl)c(Cl)cc21
inactive: dose: 10.0 mg/kg/injection, schedule: Q01DX001 (ip), vehicle: saline 93 % of control

CCCCN1CC1CC (configuration not stated)
inactive: dose: 25.0 mg/kg/injection, schedule: Q04DX003 (ip), vehicle: Klucel (hydroxypropylcellulose) (HPC) 105 % of control | dose: 50.0 mg/kg/injection, schedule: Q04DX003 (ip), vehicle: Klucel (hydroxypropylcellulose) (HPC) 95 % of control | dose: 100.0 mg/kg/injection, schedule: Q01DX001 (ip), vehicle: Klucel (hydroxypropylcellulose) (HPC) 108 % of control | dose: 100.0 mg/kg/injection, schedule: Q04DX003 (ip), vehicle: Klucel (hydroxypropylcellulose) (HPC) 103 % of control

Cl/C(=N\Nc1ccccc1)c1ccccc1
inactive: dose: 3.52 mg/kg/injection, schedule: Q01DX009 (ip), vehicle: saline sonified 100 % of control | dose: 5.28 mg/kg/injection, schedule: Q01DX009 (ip), vehicle: saline sonified 105 % of control | dose: 7.5 mg/kg/injection, schedule: Q01DX001 (ip), vehicle: Klucel (hydroxypropylcellulose) (HPC) 98 % of control | dose: 8.0 mg/kg/injection, schedule: Q01DX009 (ip), vehicle: saline sonified 100 % of control | dose: 12.0 mg/kg/injection, schedule: Q01DX009 (ip), vehicle: saline sonified 108 % of control | dose: 15.0 mg/kg/injection, schedule: Q01DX001 (ip), vehicle: Klucel (hydroxypropylcellulose) (HPC) 105 % of control | dose: 15.0 mg/kg/injection, schedule: Q01DX009 (ip), vehicle: saline sonified 111 % of control | dose: 30.0 mg/kg/injection, schedule: Q01DX001 (ip), vehicle: Klucel (hydroxypropylcellulose) (HPC) 105 % of control | dose: 30.0 mg/kg/injection, schedule: Q01DX009 (ip), vehicle: saline sonified 118 % of control

O=C(O)c1nnc(C(=O)O)nn1
inactive: dose: 50.0 mg/kg/injection, schedule: Q01DX009 (ip), vehicle: saline 96 % of control | dose: 100.0 mg/kg/injection, schedule: Q01DX009 (ip), vehicle: saline 102 % of control and 104 % of control | [1] 100 % of control | dose: 200.0 mg/kg/injection, schedule: Q01DX009 (ip), vehicle: saline 100 % of control and 101 % of control | [2] 103 % of control | dose: 400.0 mg/kg/injection, schedule: Q01DX009 (ip), vehicle: saline 96 % of control | [3] 94 % of control

CCOC(C)C(/C=N/Nc1ccccc1)=N\Nc1ccccc1 (configuration not stated)
inactive: dose: 15.0 mg/kg/injection, schedule: Q01DX Z (ip), vehicle: carboxymethylcellulose (CMC) 98 % of control | dose: 30.0 mg/kg/injection, schedule: Q01DX Z (ip), vehicle: carboxymethylcellulose (CMC) 97 % of control | dose: 60.0 mg/kg/injection, schedule: Q01DX Z (ip), vehicle: carboxymethylcellulose (CMC) 97 % of control | dose: 120.0 mg/kg/injection, schedule: Q01DX Z (ip), vehicle: carboxymethylcellulose (CMC) 92 % of control

CCC(C)(C(=O)OCCOCCCl)c1cccc2ccccc12 (configuration not stated)
inactive: [5] 95 % of control | [7] 104 % of control | [8] 101 % of control

CCOC(=O)c1ccc2c3c(ccc(C(=O)OCC)c13)C=C2
inactive: [9] 88 % of control | [10] 96 % of control | [11] 100 % of control

Nc1cccc(CC(=O)Nc2ccc(S(=O)(=O)F)cc2)c1
inactive: [9] 90 % of control | [10] 106 % of control | [11] 100 % of control

CN(C)CC/C=C1\c2ccccc2C(C)(C)c2ccc(Cl)cc21
inactive: dose: 2.0 mg/kg/injection, schedule: Q01DX015 (ip), vehicle: carboxymethylcellulose (CMC) 97 % of control | dose: 4.0 mg/kg/injection, schedule: Q01DX015 (ip), vehicle: carboxymethylcellulose (CMC) 96 % of control | dose: 8.0 mg/kg/injection, schedule: Q01DX015 (ip), vehicle: carboxymethylcellulose (CMC) 92 % of control | dose: 12.5 mg/kg/injection, schedule: Q01DX009 (ip), vehicle: acetone 86 % of control | dose: 16.0 mg/kg/injection, schedule: Q01DX015 (ip), vehicle: carboxymethylcellulose (CMC) 102 % of control and 91 % of control | dose: 25.0 mg/kg/injection, schedule: Q01DX009 (ip), vehicle: acetone 94 % of control | dose: 25.0 mg/kg/injection, schedule: Q04DX003 (ip), vehicle: saline 96 % of control | dose: 32.0 mg/kg/injection, schedule: Q01DX015 (ip), vehicle: carboxymethylcellulose (CMC) 98 % of control | dose: 50.0 mg/kg/injection, schedule: Q04DX003 (ip), vehicle: saline 91 % of control | [9] 87 % of control

O=C(O)C1=C2C(=O)Nc3cccc(c32)C2(C1)C(=O)Nc1ccccc12 (configuration not stated)
inactive: [5] 103 % of control | [7] 103 % of control | [8] 103 % of control

O=c1cc(NCc2cccc3ccccc23)[nH]c(=O)[nH]1
inactive: dose: 37.5 mg/kg/injection, schedule: Q01DX001 (ip), vehicle: Klucel (hydroxypropylcellulose) (HPC) 97 % of control | dose: 75.0 mg/kg/injection, schedule: Q01DX001 (ip), vehicle: Klucel (hydroxypropylcellulose) (HPC) 95 % of control | dose: 150.0 mg/kg/injection, schedule: Q01DX001 (ip), vehicle: Klucel (hydroxypropylcellulose) (HPC) 93 % of control
